From US20100105746A1, “METHOD FOR TREATING METABOLIC DISEASES” (priority 2008, published 2010)
Values joined by “and” are separate entries in the source; they are usually repeats but may differ in a detail not shown here. Equal values may be shown once.

Columns and labels:
[1] = Body weight, food consumption and liver weight in diet-induced obese (DIO) rat model (Example 4); format: in vivo
Method: Male Sprague-Dawley rats were acclimated for 7 weeks on a high-fat diet before commencement of dose administration, and maintained on the same diet throughout the subsequent dosing period of 23 days. The high-fat diet (D12492 commercially available from Research Diets, Inc., New Brunswick, N.J.) was one in which at least 60% of calories are derived from fat.
Dose levels of gemfibrozil (50 mg/kg) and sibutramine (10 mg/kg) were selected based on published reports. All treatments were administered once daily by oral gavage in 10 ml vehicle. A vehicle-only control was also administered. Each treatment group consisted of 10 animals.
Body weight of each animal was measured weekly during the 7-week acclimation period and five times weekly during the 23-day dosing period. Food consumption was recorded twice weekly during the 7-week acclimation period and five times weekly during the 23-day dosing period.
Animals were sacrificed and liver weights measured at conclusion of the study.

[2] = Oral glucose tolerance test (OGTT) in rats with diet-induced obesity (Example 5); format: in vivo, rat; settings: for Glucose concentration excursion (baseline to maximum) / Glucose concentration maximum: OGTT day 21, DIO rats; for Time to maximum (glucose concentration): OGTT day 21, dextrose 2 g/kg
Method: As part of the study described in Example 4, an oral glucose tolerance test (OGTT) was performed on day 21 of the dosing period, after a 2-4 hour fast. Dextrose (2 g/kg) was administered by oral gavage. Blood for glucose analysis was collected at 0, 15, 30, 60, 120 and 180 minutes after dextrose administration. At each time point, 0.25 ml whole blood was collected in EDTA, processed to plasma, and analyzed for blood glucose with a low-volume glucose kit.

[3] = Terminal fasting serum glucose and lipids in rats with diet-induced obesity (Example 6); format: in vivo, rat; settings: DIO rats, vs vehicle control
Method: As part of the study described in Example 4, a terminal blood sample (0.5 ml whole blood in EDTA) was collected on day 24, after a 12-18 hour fast. Whole blood was processed to serum, and analyzed for glucose, total cholesterol, HDL cholesterol, free fatty acids and total triglycerides.

[4] = Plasma lipids, lipoproteins and liver weight in normal rats versus fibrates (Example 8); format: in vivo, rat; settings: once daily p.o. 7 days, approximation
Text: The study design was based on the protocols used in Examples 1-3. Male Sprague-Dawley rats were provided normal chow ad libitum, both before and during the study period. […] Six rats were assigned to each treatment group (8 to the vehicle control). The study terminated on the day following administration of the seventh dose (day 8), with terminal blood collected for plasma lipid and lipoprotein analyses including LC-MS-based determination of lipid profiles, total and free cholesterol analyses, and lipoprotein cholesterol determinations (VLDL, LDL and HDL).
In order to elucidate the impact of romazarit on plasma lipoproteins, an ultraviolet (UV) size exclusion chromatography (SEC) system was used to separate plasma into broad lipoprotein-containing fractions that were based on relative retention times of human VLDL (very low density lipoprotein), LDL (low density lipoprotein), and HDL (high density lipoprotein) standards. These fractions were collected for cholesterol assays and the UV chromatograms were integrated to provide relative quantitation of the three lipoprotein types. It is important to note that since the UV absorbance measurement is not specific for lipoproteins and may also derive from other plasma constituents that co-elute with a particular lipoprotein, the relative quantitation data reported here is an approximation. The HDL fraction in particular may have included such co-eluting species, as evidenced by the relatively high integrated area values for this fraction.

[5] = DIO rats, 10 mg/kg once daily p.o.

With `Cc1ccc(C)c(OCCCC(C)(C)C(=O)O)c1` [gemfibrozil] the food consumption ([1]; DIO rats, 50 mg/kg once daily p.o., dosing period) was “No significant effect”, the body weight ([1]; DIO rats, 50 mg/kg once daily p.o., throughout the dosing period) was “no significant effect” and the liver weight ([1]; rat, in vivo, po, 50 mg/kg) was “Increased liver weight”. For the same molecule, the “Glucose concentration excursion (baseline to maximum)” value ([2]; 50 mg/kg) was 110.0 mg/dL and 111.0 mg/dL, the Glucose concentration maximum ([2]; 50 mg/kg) was 264.9 mg/dL and the “Time to maximum (glucose concentration)” value ([2]; DIO rats, 50 mg/kg) was 30 min. For the same molecule, the “terminal (total) cholesterol levels” value ([3]; day 24, 50 mg/kg once daily) was “significantly increased”, the “terminal HDL levels” value ([3]; day 24, 50 mg/kg once daily) was “significantly increased” and the “terminal fasting levels of triglycerides” value ([3]; day 24, 50 mg/kg once daily) was “significant reduction”. The “terminal fasting serum glucose” value ([3]; day 24, 50 mg/kg once daily) was “did not result in a significant decrease”, the “terminal levels of free fatty acids” value ([3]; day 24, 50 mg/kg once daily) was “significant increase” and the “VLDL (UV size exclusion chromatography, relative quantitation)” value [4] was “similarly significant effect”.

With `CC(C)CC(N(C)C)C1(c2ccc(Cl)cc2)CCC1` (stereo not shown) [sibutramine] the “day by which food consumption returned to levels comparable to the vehicle control” value [1, 5] was no more than 8 days, the “time of minimum food consumption” value [1, 5] was no more than 2 days and the body weight ([1]; DIO rats, 10 mg/kg once daily p.o., 23 days) was “significant weight loss”. For the same molecule, the liver weight ([1]; DIO rats, 10 mg/kg once daily p.o., conclusion of the study) was “No increase in liver weight”, the Glucose concentration baseline ([2]; OGTT day 21, 0 minutes, DIO rats, 10 mg/kg) was 126.9 mg/dL and the “Glucose concentration excursion (baseline to maximum)” value ([2]; 10 mg/kg) was 74.4 mg/dL. The Glucose concentration maximum ([2]; 10 mg/kg) was 201.3 mg/dL, the “Time to maximum (glucose concentration)” value ([2]; DIO rats, 10 mg/kg) was 30 min and the “terminal (total) cholesterol levels” value ([3]; day 24, 10 mg/kg once daily) was “no effect”. For the same molecule, the “terminal HDL levels” value ([3]; day 24, 10 mg/kg once daily) was “no significant effect”, the “terminal fasting levels of triglycerides” value ([3]; day 24, 10 mg/kg once daily) was “significant reduction” and the “terminal fasting serum glucose” value ([3]; day 24, 10 mg/kg once daily) was “significant decrease”. The “terminal levels of free fatty acids” value ([3]; day 24, 10 mg/kg once daily) was “no effect”.
